Measurements taken from patent US7709002B1, “Mutated ras peptides for generation of CD8+Cytotoxic T lymphocytes” (The United States of America as represented by the …, priority 1996, dated 2010).

What was measured:
[1] = tested on: CD4+ T cell line of patient 29; assay: Lymphoproliferation (3H-thymidine uptake) of PBMC cultures / CD4+ T cell line of patient 29; type: cell-based, human
From the text: In vitro stimulation (IVS) cycles for evaluation of CD4^+ T cell responses. IVS cycles were established to: (i) amplify detection of a low proliferative response, (ii) compare “pre-immune” to “post-immune” lymphocytes over a period to time for assessment of potential peptide-specific reactivity, and (iii) derive peptide-specific CD4^+ T cell lines in culture for detailed phenotypic and functional characterization. […]
Proliferation response. […] Cells were collected with a TOMTEC MACH II 96 harvester (Wallace, Inc., Gaithersburg, Md.) and incorporated radioactivity was measured by liquid scintillation spectroscopy (1205 Betaplate flat bed LS counter; Wallace). MHC class I or II restriction was analyzed in MAb blocking experiments using anti-HLA-A, B, C (clone G46-2.6) or anti-HLA-DR, anti-HLA-DP or anti-HLA-DQ (clones TU36, HI43 or TU169, respectively) (all from Pharmingen). […] Results were expressed as the mean cpm±SEM of triplicate cultures or stimulation index, which was calculated by dividing the cpm of experimental cultures (means counts of triplicate wells) by the cpm of unstimulated control cultures (mean counts of triplicate wells).

[2] = tested on: CD4+ T cell line of RAS patient 43; assay: Proliferation of patient 43 CD4+ T cell line to ras protein from tumor cell extracts captured on pan-ras MAb RAS 10 and presented by autologous BLCL; type: cell-based, human
[3] = tested on: CD4+ T cell line of RAS patient 43; assay: Lymphoproliferation (3H-thymidine uptake) of PBMC cultures / CD4+ T cell line of RAS patient 43; type: cell-based, human; details: for Proliferation Response cpm(± SEM) / Proliferation Response SI (stimulation index): 4th IVS
[4] = tested on: SW480 colon carcinoma cell line (HLA-A2+, rasVal12+); assay: 51Cr-release cytotoxicity of CTL against SW480 colon carcinoma cells; type: cell-based, human
Protocol: FIGS. 10A and 10B. Anti-ras Val12-specific CTL from patient 29 lyse SW480 tumor targets in the absence of exogenous peptide. FIG. 10A: Anti-ras Val12-specific CD8^+ CTL from patient 29 were assayed against the SW480 colon carcinoma cell line (HLA-A2^+, rasVal12+) in the absence of exogenous peptide, with or without IFN-γ pretreatment (250 U/ml for 24 hr) of the target cells. CD8^+ CTL reactive with the […] peptide were used as an irrelevant effector cell population. Cytotoxicity was determined by ^51Cr-release, and the results expressed at different effector/target ratios. FIG. 10B: In parallel to 10A, anti-ras or anti-MART-1-specific CTL were assayed against SW480 (±IFN-γ pretreatment) at an effector/target ratio of 10/1 in the absence or presence of exogenous peptide (5 μg/ml). […] Flow cytometric analysis of SW480 cells for expression of HLA-A2: untreated=65.4% with MFI of 29.8; IFN-γ-pretreated=99.5% with MFI of 349.6. Flow cytometric analysis of SW480 cells for expression of ICAM-1: untreated=16.0% with MFI of 30.3; IFN-γ-pretreated=98.6% with MFI of 181.9.
(§1) Cytotoxic response. Cytotoxicity was examined by a conventional ^51Cr-release assay, as described (6). […] After incubation, supernatants were collected using a Supernatant Collection System (Skatron, Sterling, Va.) and radioactivity measured in a γ-counter (Packard Instruments, Downers Grove, Ill.). Cytotoxic activity was defined as percent specific release of ^51Cr and determined by the equation: [(experimentalcpm−spontaneouscpm)/maximumcpm−spontaneouscpm)]×100. Results were expressed as the mean±SEM of triplicate cultures. […]
Studies were also carried out to determine whether such peptide-induced CD8^+ CTL could recognize a processed form of the corresponding mutant ras protein. […] In contrast to the CD4^+ analysis, which measured lymphoproliferation to soluble protein, the CD8^+ CTL analysis reflected lytic ability against SW480 cells harboring the naturally-occurring mutation in the absence of exogenously added peptide. […]

[5] = tested on: C1R-A2 targets / autologous EBV-B cells as targets of CD8+ CTL line of patient 29; assay: 51Cr-release cytotoxicity of CD8+ CTL line of patient 29 against C1R-A2 or autologous EBV-B targets; type: cell-based, human; details: patient 29 lymphocytes after IVS cycle 7 (FIG. 9A)
Protocol: FIGS. 9A and 9B. Production of a peptide-specific CD8^+ T cell line from post-vaccinated lymphocytes of patient 29. FIG. 9A: A CD8^+ CTL line was established from post-vaccinated PBMC of patient 29 and assayed for peptide specificity against C1R-A2 targets. Cytotoxicity was determined by ^51Cr-release, and the results expressed at different effector/target ratios following IVS cycle 7. FIG. 9B: Using this CD8^+ CTL line, the requirement for HLA-A2 in peptide presentation (by autologous EBV-B cells as targets) was determined in blocking experiments using MAb (clone BB7.2; ascites=1:30 dilution) directed against that molecule (or using an isotype-matched MAb). […] CD4 and CD8 MAbs were as described for FIGS. 8A and 8b. Control lysis in the absence of peptide or in the presence of ras5-14(Gly12) was <3%.
as §1

[6] = tested on: T2 cell line as target of CD8+ CTL line of RAS patient 32; assay: 51Cr-release cytotoxicity of CD8+ CTL line of RAS patient 32 against peptide-pulsed T2 targets; type: cell-based, human; details: peptide 10 μg/ml, IVS cycle 7 (FIG. 5)
Protocol: FIG. 5. Cytolytic activity by CD8^+ CTL line of RAS patient 32 is peptide-specific. The CD8^+ CTL line of RAS patient 32 (see FIG. 3) was assayed against the T2 cell line as a target, incubated with and without different ras peptides (10 μg/ml), as shown. In parallel, the extent of NK activity was evaluated against K562 cells. Cytotoxicity was determined by ^51Cr-release, and the results expressed at different E/T ratios following IVS cycle 7. Similar results were observed using the second, independently-derived CD8^+ CTL line as described in Table 6.
IVS cycles for evaluation of CD8^+ T cell responses from HLA-A2+Patients. Freshly-thawed PBMC (from ras patients 32 and 33), derived pre-vaccination and post-third vaccination, were enriched in T lymphocytes by passage over nylon wool columns (Robbins Scientific, Sunnyvale, Calif.) and then depleted of CD4^+ T cells by negative selection via panning on anti-CD4 MAb-coated T25 flasks (Applied Immune Sciences, Santa Clara, Calif.). For the first IVS cycle, CD8^+ enriched lymphocytes (5×10^5/well) were cultured in 24-well plates with irradiated, autologous PBMC (5×10^6/well) as APC which had been preincubated for 3 hours with the appropriate mutant ras peptide ([…]) plus human β2-microglobulin (10 μg/ml) (Calbiochem, San Diego, Calif.). […] IL-2 (10 U/ml) was added 3 days later. After an additional 7 days, viable cells (2-5×10^5/well) were re-cultured by weekly stimulation with APC pre-pulsed with peptide/β2-microglobulin, and IL-2 added one day later. After the third or fourth IVS cycle, autologous PBMC were replaced with EBV-transformed, autologous BLCL (5×10^5/well) as APC. […] CTL activity was evaluated from cultures 5 to 6 days after Ag restimulation.
Cytotoxic response. Cytotoxicity was examined by a conventional ^51Cr-release assay, as described (6). Briefly, target cells (i.e. T2, C1R-A2, BLCL, K562) were radiolabeled with 200 μCi of Na2[^51Cr]04 (Amersham) for 60 minutes at 37° C., followed by thorough washing to remove unincorporated isotope. Effectors and targets (1×10^4/well) were incubated in 96-well, U-bottomed plates (Costar) at various effector target (E/T) ratios in the absence and presence of peptide (+/−monoclonal antibody (MAb) directed against CD4, CD8 or HLA-A2 molecules (clone BB7.2 from ATCC)) for up to 6 hours. After incubation, supernatants were collected using a Supernatant Collection System (Skatron, Sterling, Va.) and radioactivity measured in a γ-counter (Packard Instruments, Downers Grove, Ill.). Cytotoxic activity was defined as percent specific release of ^51Cr and determined by the equation: [(experimentalcpm−spontaneouscpm)/maximumcpm−spontaneouscpm)]×100. Results were expressed as the mean±SEM of triplicate cultures. […]

[7] = tested on: HLA-A2+ peptide-pulsed targets; assay: Generation and cytotoxicity of ras4-12(V12)-specific CD8+ CTL line from a normal HLA-A2+ donor; type: cell-based, human; details: wild-type printed as wild-type ras peptide
human HLA-A2 = biological target: T1, human HLA-A2 (Homo sapiens, UniProt P04439, D140Y/D185E/D98H/E176V/E277Q/G131W/G231S/I119V/I121R/I166T/I218V/L300P/L318F/N151K/N90K/P208A/P217A/Q86G/Q94H/R138H/R169H/T345S); assay: HLA-A2 binding bioassay on T2 cells (flow cytometry); details: T2 bioassay
T1 construct: The 174CEM.T2 cell line (“T2”), (transport deletion mutant); endogenous in cells; host or cells: 174CEM.T2 (T2) human cell line

[8] = Post-Immune culture, peptide 3 μg/ml
[9] = Post-Immune culture, peptide 10 μg/ml
[10] = Post-Immune culture, peptide 30 μg/ml
[11] = Pre-Immune culture, peptide 3 μg/ml
[12] = Pre-Immune culture, peptide 10 μg/ml
[13] = Pre-Immune culture, peptide 30 μg/ml
[14] = Pre-Immune culture, peptide 100 μg/ml

“Lys-Leu-Val-Val-Val-Gly-Ala-Gly-Gly-Val-Gly-Lys-Ser (KLVVVGAGGVGKS) [ras5-17(Gly12)]” was tested, and the “Proliferation, control culture (cpm±SEM)” value ([1]; T cells+EBV-B cells+peptide 3 μg/ml, IVS cycle 4 (FIG. 8B), without peptide 19,256±1926) was 18,116±1474 cpm, the “Peptide-induced proliferation of patient 29 post-vaccination PBMC (in words)” value ([1]; post-vaccination, following IVS (FIG. 8A)) was “no proliferative response was detectable” and the “Proliferation Response cpm(± SEM)” value ([2]; Table 5: peptide 10 μg/ml, RAS 10 coating +, BLCL +) was 8,844 ± 753 cpm. For the same substance, the “Proliferation Response cpm(± SEM)” value ([2]; peptide 30 μg/ml, wells pre-coated with RAS 10, BLCL as APC) was 8,130 ± 314 cpm, the “Proliferation Response cpm(± SEM)” value ([3]; Post-Immune culture (post-third vaccination), peptide 100 μg/ml) was 640 ± 23 cpm and the “Proliferation Response SI (stimulation index)” value [3, 8] was 1.0. For the same substance, the “Proliferation Response cpm(± SEM)” value [3, 8] was 694 ± 19 cpm, the “Proliferation Response SI (stimulation index)” value [3, 9] was 1.1 and the “Proliferation Response cpm(± SEM)” value [3, 9] was 725 ± 27 cpm. The “Proliferation Response SI (stimulation index)” value [3, 10] was 1.2, the “Proliferation Response cpm(± SEM)” value [3, 10] was 819 ± 142 cpm and the “Proliferation Response SI (stimulation index)” value ([3]; Post-Immune culture, peptide 100 μg/ml) was 1.0. The “Proliferation Response SI (stimulation index)” value [3, 11] was 0.9, the “Proliferation Response cpm(± SEM)” value [3, 11] was 824 ± 255 cpm and the “Proliferation Response SI (stimulation index)” value [3, 12] was 1.1. For the same substance, the “Proliferation Response cpm(± SEM)” value [3, 12] was 768 ± 257 cpm, the “Proliferation Response SI (stimulation index)” value [3, 13] was 1.0 and the “Proliferation Response cpm(± SEM)” value [3, 13] was 849 ± 14 cpm. For the same substance, the “Proliferation Response SI (stimulation index)” value [3, 14] was 0.9, the “Proliferation Response cpm(± SEM)” value [3, 14] was 790 ± 456 cpm and the “Proliferation, control culture (cpm±SEM)” value ([3]; T cells+BLCL+peptide 10 μg/ml, IVS cycle 15 (FIG. 2B)) was 7,690±383 cpm.

With “Lys-Leu-Val-Val-Val-Gly-Ala-Val-Gly-Val [ras5-14(Val12)]” the “Effect of exogenous peptide on anti-rasVal12 CTL-mediated lysis of SW480” value ([4]; peptide 5 μg/ml, E/T 10/1 (FIG. 10B), control printed as wild-type ras peptide) was “enhanced”, the “Lysis of SW480 by anti-MART CTL in presence of exogenous peptide” value ([4]; with or without IFN-γ (FIG. 10B)) was “failed to lyse SW480 target cells” and the “Peptide-specific lysis of C1R-A2 targets (in words)” value [5] was “displayed peptide-specific, cell-mediated lysis”. The “Sensitization of T2 targets for lysis (in words)” value [6] was “failed to stimulate lysis”.

In the case of “ras4-12(G12): proto-ras 9-mer sequence positions 4-12 with Gly at position 12 (YKLVVVGAG)”, the “Generation of peptide-specific CTL line / lysis of peptide-pulsed targets (in words)” value [7] is reported as “No lysis was detectable” and the “Binding to HLA-A2 on T2 cells (in words)” value (human HLA-A2) is reported as “failed to bind to HLA-A2”.
